Assay results published in paper PMC4279228 (Molecular Biology of the Cell, 2015).

Target: LFA-1 (CD11a/CD18, αLβ2 integrin) (Homo sapiens, UniProt P05107+P20701)
Assay: Kd of unlabelled compound with XVA-FITC probe, flow cytometry on cells
Format: cell-based

Chain of LFA-1 (CD11a/CD18, αLβ2 integrin) (P20701 26-1170): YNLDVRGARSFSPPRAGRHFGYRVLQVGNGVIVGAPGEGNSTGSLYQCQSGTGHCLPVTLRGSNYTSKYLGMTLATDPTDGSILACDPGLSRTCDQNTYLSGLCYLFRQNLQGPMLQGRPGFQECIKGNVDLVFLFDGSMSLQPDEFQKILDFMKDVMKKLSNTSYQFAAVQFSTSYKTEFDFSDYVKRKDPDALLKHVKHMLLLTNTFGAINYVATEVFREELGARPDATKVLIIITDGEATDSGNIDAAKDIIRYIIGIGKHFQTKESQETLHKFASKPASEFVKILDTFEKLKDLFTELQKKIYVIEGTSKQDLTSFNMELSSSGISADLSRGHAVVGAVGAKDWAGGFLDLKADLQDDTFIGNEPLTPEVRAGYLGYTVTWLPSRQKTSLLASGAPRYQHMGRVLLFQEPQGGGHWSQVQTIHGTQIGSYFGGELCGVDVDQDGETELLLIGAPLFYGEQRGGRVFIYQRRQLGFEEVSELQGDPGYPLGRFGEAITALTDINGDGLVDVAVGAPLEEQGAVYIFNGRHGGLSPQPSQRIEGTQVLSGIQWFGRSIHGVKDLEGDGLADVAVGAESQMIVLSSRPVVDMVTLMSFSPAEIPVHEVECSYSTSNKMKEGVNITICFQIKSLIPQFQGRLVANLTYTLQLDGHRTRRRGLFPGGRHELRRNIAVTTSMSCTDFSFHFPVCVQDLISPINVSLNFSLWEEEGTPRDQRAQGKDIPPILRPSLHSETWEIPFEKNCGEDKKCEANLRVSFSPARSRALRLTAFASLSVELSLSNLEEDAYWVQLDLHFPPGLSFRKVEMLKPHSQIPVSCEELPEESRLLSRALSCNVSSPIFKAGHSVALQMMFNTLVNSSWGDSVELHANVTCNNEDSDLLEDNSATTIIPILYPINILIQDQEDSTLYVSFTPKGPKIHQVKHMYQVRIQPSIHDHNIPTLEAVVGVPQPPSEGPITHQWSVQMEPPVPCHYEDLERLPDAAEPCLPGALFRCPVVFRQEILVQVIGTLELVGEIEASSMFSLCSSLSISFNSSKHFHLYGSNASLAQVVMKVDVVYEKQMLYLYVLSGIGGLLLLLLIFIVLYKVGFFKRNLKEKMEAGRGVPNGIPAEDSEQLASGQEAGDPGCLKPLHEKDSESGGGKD
Chain of LFA-1 (CD11a/CD18, αLβ2 integrin) (P05107 23-769): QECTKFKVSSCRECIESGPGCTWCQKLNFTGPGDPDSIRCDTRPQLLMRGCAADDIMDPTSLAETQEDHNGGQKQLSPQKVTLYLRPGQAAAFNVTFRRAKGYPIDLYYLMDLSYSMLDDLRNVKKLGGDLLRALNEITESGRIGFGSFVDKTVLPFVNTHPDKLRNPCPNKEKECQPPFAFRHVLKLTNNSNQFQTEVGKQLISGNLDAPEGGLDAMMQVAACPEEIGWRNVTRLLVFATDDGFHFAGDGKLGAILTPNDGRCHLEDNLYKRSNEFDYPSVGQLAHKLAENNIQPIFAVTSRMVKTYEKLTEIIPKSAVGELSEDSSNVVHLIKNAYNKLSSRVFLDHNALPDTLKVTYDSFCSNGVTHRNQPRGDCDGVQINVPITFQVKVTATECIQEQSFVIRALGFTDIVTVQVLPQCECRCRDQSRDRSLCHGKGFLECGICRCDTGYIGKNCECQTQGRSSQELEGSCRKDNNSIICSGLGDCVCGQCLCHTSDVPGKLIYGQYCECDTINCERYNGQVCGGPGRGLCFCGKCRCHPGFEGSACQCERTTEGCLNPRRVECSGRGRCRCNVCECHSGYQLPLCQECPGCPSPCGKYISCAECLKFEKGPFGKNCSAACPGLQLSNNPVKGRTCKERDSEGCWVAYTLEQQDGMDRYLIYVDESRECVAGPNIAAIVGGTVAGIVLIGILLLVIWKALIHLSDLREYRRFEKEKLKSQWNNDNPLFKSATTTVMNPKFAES

Kd: 80 to 90 nM
SMILES: O=C(NCc1cccc(O)c1)c1cc(Cl)c(C(=O)N[C@@H](CNC(=O)c2cc(O)cc(O)c2)C(=O)O)c(Cl)c1 [XVA-143, (S)-2-[4-(3-hydroxybenzylcarbamoyl)-2,6-dichlorobenzoylamino]-3-(3,5-dihydroxybenzoylamino) propionic acid]
